“And” between values parts separate entries of the source, which are not always exact repeats. Identical values can stand only once.
Test: xn = mol fraction of the nth substance listed
Conditions: Liquid, Taylor dispersion method, x1 = 0

[CH]1C=CC=C1.[CH]1C=CC=C1.[Fe] [ferrocene] + C1CCCCC1
binary diffusion coefficient
Conditions	313.15 K	323.15 K
170 kPa	1.52e-09 m2/s	–
190 kPa	1.51e-09 m2/s	–
200 kPa	1.5e-09 m2/s	–
11030 kPa	1.31e-09 m2/s	–
11080 kPa	1.31e-09 m2/s	–
11090 kPa	1.32e-09 m2/s	–
16010 kPa	1.25e-09 m2/s	–
16020 kPa	1.25e-09 m2/s	1.48e-09 m2/s
16030 kPa	1.25e-09 m2/s	1.48e-09 m2/s
19010 kPa	1.21e-09 m2/s	–
19020 kPa	1.21e-09 m2/s and 1.22e-09 m2/s and 1.24e-09 m2/s	–

CCc1ccc[cH-]1.[Fe+2].c1cc[cH-]c1 [ethyl ferrocene] + C1CCCCC1
binary diffusion coefficient
Conditions	170 kPa	180 kPa	11020 kPa	11030 kPa	16020 kPa	16030 kPa	19010 kPa	19020 kPa	19030 kPa
313.15 K	1.38e-09 m2/s	1.36e-09 m2/s and 1.38e-09 m2/s	1.21e-09 m2/s	1.2e-09 m2/s	–	1.14e-09 m2/s and 1.15e-09 m2/s	1.12e-09 m2/s and 1.15e-09 m2/s	1.12e-09 m2/s	1.11e-09 m2/s
323.15 K	–	–	–	–	1.36e-09 m2/s	1.35e-09 m2/s	–	–	–

C[c-]1cccc1.C[c-]1cccc1.[Fe+2] [1,1'-dimethylferrocene] + C1CCCCC1
binary diffusion coefficient
Conditions	190 kPa	11020 kPa	11030 kPa	11090 kPa	16000 kPa	16010 kPa	16020 kPa	16030 kPa	19010 kPa	19020 kPa
313.15 K	1.36e-09 m2/s and 1.37e-09 m2/s	1.2e-09 m2/s	1.2e-09 m2/s	1.21e-09 m2/s	–	1.14e-09 m2/s	1.14e-09 m2/s	1.13e-09 m2/s	1.09e-09 m2/s	1.09e-09 m2/s and 1.14e-09 m2/s and 1.11e-09 m2/s
323.15 K	–	–	–	–	1.36e-09 m2/s	–	1.36e-09 m2/s	1.36e-09 m2/s	–	–

CCc1ccc[cH-]1.[Fe+2].c1cc[cH-]c1 [ethyl ferrocene] + CCCCCC
313.15 K
Conditions	binary diffusion coefficient
160 kPa	3.35e-09 m2/s and 3.37e-09 m2/s and 3.38e-09 m2/s and 3.3e-09 m2/s and 3.34e-09 m2/s
11060 kPa	2.98e-09 m2/s
11070 kPa	3e-09 m2/s and 2.99e-09 m2/s
16010 kPa	2.86e-09 m2/s and 2.89e-09 m2/s
16030 kPa	2.87e-09 m2/s
18960 kPa	2.81e-09 m2/s
19010 kPa	2.78e-09 m2/s

CCc1ccc[cH-]1.[Fe+2].c1cc[cH-]c1 [ethyl ferrocene] + CCO
Conditions	binary diffusion coefficient
313.15 K, 200 kPa	1.29e-09 m2/s and 1.32e-09 m2/s and 1.31e-09 m2/s

[CH]1C=CC=C1.[CH]1C=CC=C1.[Fe] [ferrocene] + CCO
Conditions	binary diffusion coefficient
313.15 K, 200 kPa	1.48e-09 m2/s and 1.46e-09 m2/s and 1.45e-09 m2/s

C[c-]1cccc1.C[c-]1cccc1.[Fe+2] [1,1'-dimethylferrocene] + CCO
Conditions	binary diffusion coefficient
313.15 K, 200 kPa	1.29e-09 m2/s and 1.3e-09 m2/s and 1.31e-09 m2/s

[CH]1C=CC=C1.[CH]1C=CC=C1.[Fe] [ferrocene] + CCCCCC
binary diffusion coefficient
Conditions	160 kPa	170 kPa	10990 kPa	11070 kPa	11090 kPa	15990 kPa	16010 kPa	16020 kPa	16030 kPa	19020 kPa
313.05 K	–	–	–	–	–	–	–	3.14e-09 m2/s	3.11e-09 m2/s	–
313.15 K	3.66e-09 m2/s and 3.65e-09 m2/s	3.64e-09 m2/s	3.28e-09 m2/s and 3.25e-09 m2/s	3.28e-09 m2/s	3.29e-09 m2/s	3.17e-09 m2/s	3.13e-09 m2/s	3.12e-09 m2/s	3.11e-09 m2/s and 3.14e-09 m2/s	3.07e-09 m2/s

C[c-]1cccc1.C[c-]1cccc1.[Fe+2] [1,1'-dimethylferrocene] + CCCCCC
313.15 K
Conditions	binary diffusion coefficient
160 kPa	3.36e-09 m2/s and 3.4e-09 m2/s and 3.37e-09 m2/s
170 kPa	3.41e-09 m2/s
11030 kPa	3.05e-09 m2/s and 3.06e-09 m2/s
15990 kPa	2.9e-09 m2/s
16000 kPa	2.89e-09 m2/s and 2.87e-09 m2/s
16010 kPa	2.9e-09 m2/s
16030 kPa	2.9e-09 m2/s
19020 kPa	2.84e-09 m2/s

From the NIST ThermoML archive (doi:10.1016/j.fluid.2010.06.003)
